Data as given in article PMC6173696, “Structural properties of a haemophore facilitate targeted elimination of the pathogen Porphyromonas gingivalis” (Nature Communications, 2018).

Legend:
[1] = system: H413 gingival epithelial cell; assay type: cell-based, Human
Method: Human gingival epithelial cells were grown to confluence and seeded on plastic chamber slides (75 × 25 mm^2) for incubation in 5% CO2 atmosphere overnight. Bacterial cells were co-incubated with epithelial cells at 37 °C for 2 h. After exposure to the antibiotics, epithelial cells were washed in PBS and incubated in culture media containing 5% FCS for 24 h. Subsequently, samples in the chamber slides were fixed with 4% fresh paraformaldehyde in PBS for 30 min at room temperature, washed in PBS, and permeabilised by ice-cold methanol for 5 min. Samples were then blocked overnight with 10% FCS supplemented with 0.05% (v/v) Triton X-100 in PBS buffer. Intracellular P. gingivalis was stained using the primary antibody IIB2[44] and fluorochrome-conjugated secondary antibody. […] Labelled epithelial cells with invaded bacteria were detected using an Olympus FV1000 confocal laser scanning microscope. In addition, the intrinsic fluorescence of P8 allowed temporal tracking of internalisation of P8 into epithelial cells in a separate experiment. Live cell images were recorded using a DeltaVision Elite Core Microscope.
Supplementary Figure 23. (A) UV-vis spectra of 10 µM P8 alone and in the presence of 10 µM HusA. (B) Stability assay of P8 in the presence of gingival epithelial cell lysate. The intensity of P8 fluorescence was applied to monitor the stability of P8 in the presence of cell lysate. […]

[2] = biological target: T1, HusA L123N-V124N (Porphyromonas gingivalis, UniProt Q7MSY3, L123N/V124N); assay: Tryptophan fluorescence quenching assay, HusA mutant L123N-V124N; assay type: binding; details: mutant LV123/4NN
T1 sequence (Q7MSY3 24-218 L123N/V124N): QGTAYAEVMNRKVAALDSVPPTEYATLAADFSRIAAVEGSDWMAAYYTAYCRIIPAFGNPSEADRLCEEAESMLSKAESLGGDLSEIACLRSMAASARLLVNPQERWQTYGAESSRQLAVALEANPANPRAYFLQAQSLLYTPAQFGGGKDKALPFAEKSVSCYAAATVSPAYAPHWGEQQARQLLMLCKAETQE
Method: The quenching of intrinsic tryptophan fluorescence of HusA upon porphyrin additions was measured using a Carey Eclipse Fluorescence Spectrophotometer (Agilent) set to a photo multiplier effect (PME) of 850. A 5-mm path length quartz cuvette was used and all spectra were acquired at room temperature. Excitation was set to 295 nm and emission was measured from 300 nm to 500 nm using excitation/emission slit widths of 5 nm. Binding assays were performed at a protein concentration of 1 μM HusA in standard buffer at a working volume of 0.5 mL. […] The fluorescence quenching of HusA by PPIX was investigated in a similar manner with the following difference: the fluorescence intensities of ten 1 μM HusA samples were measured each with increasing amounts of PPIX after a 2-h incubation period to allow equilibrium to be reached. See Supplementary Methods for correction for inner filter effect and curve fitting. […]
Correction of inner filter effect and curve fitting in tryptophan fluorescence quenching assays The concentration of NATA was chosen such that the raw fluorescence intensity was similar to the 10 uM concentrations of HusA and mutants used. […] Fluorescence intensity was scaled with respect to the starting florescence and corrected for the inner filter effect. Fluorescence at 335 nm was used to fit binding curves. […]

[3] = assay type: physicochemical; details: aqueous haemin, 5 µM
Method: Spectra were recorded in 0.1 M NaCl with 0.1 M of the following buffers: citrate, pH 5.0; BisTris-HCl, pH 5.5; BisTris-HCl, pH 5.75: BisTris-HCl, pH 6.0; sodium phosphate, pH 6.5; sodium phosphate, pH 7.0; sodium phosphate, pH 7.5; Tris-HCl, pH 8.0; sodium borate, pH 9.0; sodium borate/NaOH, pH 9.8; sodium carbonate, pH 10.0 (not all titration points were collected for each protein)

Structure (SMILES)	integrity of epithelial cells (confocal images) ([1]; 20 µM P8)	accumulation in epithelial cells ([1]; over a 2-h period)	reduction of haemin affinity compared to wild-type [2] [%]	pKa of acid-alkaline transition [3]
CC1=Cc2cc3[nH]c(cc4nc(cc5[nH]c(cc1n2)cc5C)C(C)=C4CCC(=O)N[C@@H](CCCCNC(=O)OC(C)(C)C)C(=O)NCCn1c([N+](=O)[O-])cnc1C)c(CCC(=O)O)c3C [P8]	remain intact	progressive accumulation		
C=CC1=C(C)c2cc3[nH]c(cc4nc(cc5[nH]c(cc1n2)c(C)c5CCC(=O)O)C(CCC(=O)O)=C4C)c(C)c3C=C.[Fe+3] [haemin]			> 50	6.7
